Measured values published in patent publication US20020137929A1, “1 - (3-heterocyclylphenyl) isothiourea, -isourea, -guanidine and -amidine herbicidal agents” (Intellectual Property Department, BASF Aktiengesellschaft, priority 1998, published 2002).

Legend:
AMBEL (Ragweed, Common) [1] = assay: Postemergence herbicidal evaluation; format: in vivo, Ambrosia artemisifolia
Summary of the method: (§1)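 Rate range approx. 0.0156–0.500 kg/ha. Foliar application at 40 psi to ~2-week seedlings; surfactant 0.5% TWEEN 20 in 50/50 acetone/water. Evaluation 4–5 wk post-treatment by 0–9 visual injury score, means of replicate tests.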

[2] = system: IPOHE (Morningglory, Ivyleaf); assay: Postemergence herbicidal evaluation; format: in vivo, Ipomoea hederacea
Summary of the method: as §1

CYPSE (Flatsedge) = assay: Preemergence weed control under flooded paddy conditions; format: in vivo, Cyperus serotinus; details: rated 3-4 weeks after treatment
Summary of the method: (§2)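 Greenhouse paddy assay. Acetone/water (50/50 v/v) solutions dosed into flood water, equivalent to about 0.0313 to 0.500 kg/ha active ingredient, over seeds planted 0.5 cm deep in silt loam. Score: 0-9 visual, based on stand, vigor, malformation, size and chlorosis, 3 to 4 weeks after treatment.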

ABUTH (Velvetleaf) = assay: Preemergence herbicidal evaluation; format: in vivo, Abutilon theophrasti; details: rated 4-5 weeks after treatment
Summary of the method: (§3)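 Preemergence soil application of compound, sprayed in aqueous acetone at rates equivalent to about 0.0156 to 0.500 kg per hectare onto freshly sown cups. Plant response was judged by eye on a 0-9 scale four to five weeks later.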

ECHCG (Barnyardgrass) = assay: Preemergence herbicidal evaluation; format: in vivo, Echinochloa crus-galli; details: rated 4-5 weeks after treatment
Summary of the method: as §3

AMBEL (Ragweed, Common) [3] = assay: Preemergence herbicidal evaluation; format: in vivo, Ambrosia artemisifolia; details: rated 4-5 weeks after treatment
Summary of the method: as §3

[4] = system: GLXMAW (Soybean, Williams); assay: Postemergence herbicidal evaluation; format: in vivo, Glycine max, (L.) Merr. cv Williams
Summary of the method: as §1

ZEAMX (Corn, Field) = assay: Postemergence herbicidal evaluation; format: in vivo, Zea mays
Summary of the method: as §1

[5] = system: GLXMAW (Soybean, Williams); assay: Preemergence herbicidal evaluation; format: in vivo, Glycine max, (L.) Merr. cv Williams; details: rated 4-5 weeks after treatment
Summary of the method: as §3

GALAP (Galium) = assay: Preemergence herbicidal evaluation; format: in vivo, Galium aparine; details: rated 4-5 weeks after treatment
Summary of the method: as §3

CASOB (Sicklepod) = assay: Preemergence herbicidal evaluation; format: in vivo, Cassia obtusifolia; details: rated 4-5 weeks after treatment
Summary of the method: as §3

SETVI (Foxtail, Green) = assay: Preemergence herbicidal evaluation; format: in vivo, Setaria viridis; details: rated 4-5 weeks after treatment
Summary of the method: as §3

[6] = system: ECHORC (Watergrass (Calif.)); assay: Postemergence weed control under flooded paddy conditions; format: in vivo, Echinochloa oryzoides; details: postemergence weeds, rated 3 to 4 weeks after treatment
Summary of the method: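 Weeds 3 to 5 cm tall and rice seedlings at the 1.5 to 2.5 leaf stage were flooded, with water held 1.5 to 3 cm above the soil. Compounds in 50/50 v/v aqueous/acetone went into the flood water at about 0.0313 to 0.500 kg/ha. Visual 0-9 ratings versus control were made 3 to 4 weeks later.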

[7] = system: SAGPY (Arrowhead (Pygmaea)); assay: Preemergence weed control under flooded paddy conditions; format: in vivo, Sagittaria pygmaea; details: rated 3-4 weeks after treatment
Summary of the method: as §2

CN1C(=O)C(CC(=O)O)SC1=Nc1cc(-n2c(=O)cc(C(F)(F)F)n(C)c2=O)c(F)cc1Cl (centres unmarked) [Compound 63, 2-{{2-Chloro-5-[3,6-dihydro-3-methyl-2,6-dioxo-4-(trifluoromethyl)-1(2H)-pyrimidinyl]-4-fluoro-phenyl}imino}-3-methyl-4-oxo-5-thiazolidineacetic acid]
Postemergence herbicidal rating AMBEL (AMBEL (Ragweed, Common) [1]; Rate 0.0158 kg/ha): 6.0
Postemergence herbicidal rating AMBEL (AMBEL (Ragweed, Common) [1]; Rate 0.0315 kg/ha): 6.0
Postemergence herbicidal rating AMBEL (AMBEL (Ragweed, Common) [1]; Rate 0.0630 kg/ha): 9.0
Postemergence herbicidal rating IPOHE ([2]; Rate 0.0158 kg/ha): 9.0
Postemergence herbicidal rating IPOHE ([2]; Rate 0.0315 kg/ha): 9.0
Postemergence herbicidal rating IPOHE ([2]; Rate 0.0630 kg/ha): 9.0
CYPSE herbicidal effect rating (CYPSE (Flatsedge); 0.0313 kg/ha): 0.0
CYPSE herbicidal effect rating (CYPSE (Flatsedge); 0.0625 kg/ha): 0.0
CYPSE herbicidal effect rating (CYPSE (Flatsedge); 0.1250 kg/ha): 0.0
CYPSE herbicidal effect rating (CYPSE (Flatsedge); 0.2500 kg/ha): 0.0
Preemergence herbicidal rating ABUTH (ABUTH (Velvetleaf); rate 0.0156 kg/ha): 1.0
Preemergence herbicidal rating ABUTH (ABUTH (Velvetleaf); rate 0.0313 kg/ha): 6.0
Preemergence herbicidal rating ABUTH (ABUTH (Velvetleaf); rate 0.0625 kg/ha): 9.0
Preemergence herbicidal rating ABUTH (ABUTH (Velvetleaf); rate 0.1250 kg/ha): 9.0
Preemergence herbicidal rating ABUTH (ABUTH (Velvetleaf); rate 0.2500 kg/ha): 9.0
Preemergence herbicidal rating ECHCG (ECHCG (Barnyardgrass); rate 0.0156 kg/ha): 0.0
Preemergence herbicidal rating ECHCG (ECHCG (Barnyardgrass); rate 0.0313 kg/ha): 0.0
Preemergence herbicidal rating ECHCG (ECHCG (Barnyardgrass); rate 0.0625 kg/ha): 1.0
Preemergence herbicidal rating ECHCG (ECHCG (Barnyardgrass); rate 0.1250 kg/ha): 4.0
Preemergence herbicidal rating ECHCG (ECHCG (Barnyardgrass); rate 0.2500 kg/ha): 9.0
Preemergence herbicidal rating AMBEL (AMBEL (Ragweed, Common) [3]; rate 0.0156 kg/ha): 0.0
Preemergence herbicidal rating AMBEL (AMBEL (Ragweed, Common) [3]; rate 0.0313 kg/ha): 0.0
Preemergence herbicidal rating AMBEL (AMBEL (Ragweed, Common) [3]; rate 0.0625 kg/ha): 6.0
Preemergence herbicidal rating AMBEL (AMBEL (Ragweed, Common) [3]; rate 0.1250 kg/ha): 9.0
Preemergence herbicidal rating AMBEL (AMBEL (Ragweed, Common) [3]; rate 0.2500 kg/ha): 9.0
Postemergence herbicidal rating GLXMAW ([4]; Rate 0.0158 kg/ha): 6.5
Postemergence herbicidal rating GLXMAW ([4]; Rate 0.0315 kg/ha): 8.5
Postemergence herbicidal rating GLXMAW ([4]; Rate 0.0630 kg/ha): 7.5
Postemergence herbicidal rating ZEAMX (ZEAMX (Corn, Field); Rate 0.0158 kg/ha): 7.0
Postemergence herbicidal rating ZEAMX (ZEAMX (Corn, Field); Rate 0.0315 kg/ha): 7.5
Postemergence herbicidal rating ZEAMX (ZEAMX (Corn, Field); Rate 0.0630 kg/ha): 7.5
Preemergence herbicidal rating GLXMAW ([5]; rate 0.0156 kg/ha): 0.0
Preemergence herbicidal rating GLXMAW ([5]; rate 0.0313 kg/ha): 1.0
Preemergence herbicidal rating GLXMAW ([5]; rate 0.0625 kg/ha): 4.0
Preemergence herbicidal rating GLXMAW ([5]; rate 0.1250 kg/ha): 6.0
Preemergence herbicidal rating GLXMAW ([5]; rate 0.2500 kg/ha): 7.0
Preemergence herbicidal rating GALAP (GALAP (Galium); rate 0.0156 kg/ha): 0.0
Preemergence herbicidal rating GALAP (GALAP (Galium); rate 0.0313 kg/ha): 0.0
Preemergence herbicidal rating GALAP (GALAP (Galium); rate 0.0625 kg/ha): 0.0
Preemergence herbicidal rating GALAP (GALAP (Galium); rate 0.1250 kg/ha): 9.0
Preemergence herbicidal rating GALAP (GALAP (Galium); rate 0.2500 kg/ha): 9.0
Preemergence herbicidal rating CASOB (CASOB (Sicklepod); rate 0.0156 kg/ha): 0.0
Preemergence herbicidal rating CASOB (CASOB (Sicklepod); rate 0.0313 kg/ha): 2.0
Preemergence herbicidal rating CASOB (CASOB (Sicklepod); rate 0.0625 kg/ha): 2.0
Preemergence herbicidal rating CASOB (CASOB (Sicklepod); rate 0.1250 kg/ha): 2.0
Preemergence herbicidal rating CASOB (CASOB (Sicklepod); rate 0.2500 kg/ha): 7.0
Preemergence herbicidal rating SETVI (SETVI (Foxtail, Green); rate 0.0156 kg/ha): 0.0
Preemergence herbicidal rating SETVI (SETVI (Foxtail, Green); rate 0.0313 kg/ha): 0.0
Preemergence herbicidal rating SETVI (SETVI (Foxtail, Green); rate 0.0625 kg/ha): 1.0
Preemergence herbicidal rating SETVI (SETVI (Foxtail, Green); rate 0.1250 kg/ha): 9.0
Preemergence herbicidal rating SETVI (SETVI (Foxtail, Green); rate 0.2500 kg/ha): 9.0
Herbicidal rating ECHORC ([6]; Rate 0.0313 kg/ha): 0.0
Herbicidal rating ECHORC ([6]; Rate 0.0625 kg/ha): 0.0
Herbicidal rating ECHORC ([6]; Rate 0.1250 kg/ha): 5.0
Herbicidal rating ECHORC ([6]; Rate 0.2500 kg/ha): 5.0
SAGPY herbicidal effect rating ([7]; 0.0313 kg/ha): 4.0
SAGPY herbicidal effect rating ([7]; 0.0625 kg/ha): 7.0
SAGPY herbicidal effect rating ([7]; 0.1250 kg/ha): 9.0
SAGPY herbicidal effect rating ([7]; 0.2500 kg/ha): 9.0
